Results reported in US12415786B2, “Substituted 2-heteroarylaminobenzenes and the salts thereof and their use as herbicidal agents” (Bayer Aktiengesellschaft, priority 2019, dated 2025).

How the values were obtained:
Assay type in all cases: in vivo
Agrostis tenuis = test: Herbicidal early post-emergence action (96-well microtiter plates), AGSTE; details: 1900 g/ha, scored 9 to 12 days after treatment, 100% = plants have died, 0% = like untreated control plants
Description: (§1) In the examples and tables below, the following abbreviations are used: • Undesired Plants/Weeds: • ABUTH: Abutilon theophrasti • AGSTE: Agrostis tenuis • AMARE Amaranthus retroflexus • ECHCG: Echinochloa crus-galli • LOLRI: Lolium rigidum • MATIN: Matricaria inodora • POAAN: Poa annua • SETVI: Setaria viridis • STEME: Stellaria media A. Herbicidal Early Post-Emergence Action Seeds of monocotyledonous and dicotyledonous weed plants were placed in 96-well microtiter plates in quartz sand and grown in a climatized chamber under controlled growth conditions. 5 to 7 days after sowing, the test plants were treated at the cotyledon stage. The compounds according to the invention, formulated in the form of emulsion concentrates (EC), were applied with a water application rate of the equivalent of 2200 liters per hectare. After the test plants had been left to stand in the climatized chamber for 9 to 12 days under optimum growth conditions, the effect of the preparations was scored visually in comparison to untreated controls. Here, for example, 100% activity=the plants have died, 0% activity=like untreated control plants. Tables A1 to A2 below show the effects of selected compounds of the general formula (I) according to Table 1 above on various harmful plants and an application rate corresponding to 1900 g/ha, which were obtained by the experimental procedure mentioned above.

Poa annua [1] = test: Herbicidal early post-emergence action (96-well microtiter plates), POAAN; details: 1900 g/ha, scored 9 to 12 days after treatment, 100% = plants have died, 0% = like untreated control plants
Description: as §1

Poa annua [2] = test: Herbicidal pre-emergence action (greenhouse pots), POAAN; details: 1280 g/ha, visual scoring after about 3 weeks vs untreated controls
Description: (§2) In the examples and tables below, the following abbreviations are used: • Undesired Plants/Weeds: • ABUTH: Abutilon theophrasti • AGSTE: Agrostis tenuis • AMARE Amaranthus retroflexus • ECHCG: Echinochloa crus-galli • LOLRI: Lolium rigidum • MATIN: Matricaria inodora • POAAN: Poa annua • SETVI: Setaria viridis • STEME: Stellaria media A. Herbicidal Early Post-Emergence Action Seeds of mono- and dicotyledonous weed plants were placed in plastic pots in sandy loam soil (doubly sown with one species each of mono- or dicotyledonous weed plants per pot) and covered with soil. The compounds of the invention, formulated in the form of wettable powders (WP) or as emulsion concentrates (EC), were then applied onto the surface of the covering soil as aqueous suspension or emulsion with addition of 0.5% additive at a water application rate of 600 liters per hectare (converted). After the treatment, the pots were placed in a greenhouse and kept under good growth conditions for the test plants. After about 3 weeks, the effect of the preparations was scored visually in comparison with untreated controls as percentages. For example, 100% activity=the plants have died, 0% activity=like untreated control plants. Tables C1-C8 below show the effects of selected compounds of the general formula (I) according to Table 1 above on various harmful plants and an application rate corresponding to 1280 g/ha, which were obtained by the experimental procedure mentioned above.

Amaranthus retroflexus [3] = test: Herbicidal post-emergence action (greenhouse pots), AMARE; details: 1280 g/ha, visual rating about 3 weeks after treatment vs untreated controls
Description: In the examples and tables below, the following abbreviations are used: • Undesired Plants/Weeds: • ABUTH: Abutilon theophrasti • AGSTE: Agrostis tenuis • AMARE Amaranthus retroflexus • ECHCG: Echinochloa crus-galli • LOLRI: Lolium rigidum • MATIN: Matricaria inodora • POAAN: Poa annua • SETVI: Setaria viridis • STEME: Stellaria media A. Herbicidal Early Post-Emergence Action Seeds of mono- and dicotyledonous weed plants were placed in plastic pots in sandy loam soil (doubly sown with in each case one species of mono- or dicotyledonous weed plants per pot), covered with soil and cultivated in a greenhouse under controlled growth conditions. 2 to 3 weeks after sowing, the test plants were treated at the one-leaf stage. The compounds of the invention, formulated in the form of wettable powders (WP) or as emulsion concentrates (EC), were applied onto the green parts of the plants as aqueous suspension or emulsion with addition of 0.5% additive at a water application rate of 600 liters per hectare (converted). After the test plants had been kept in the greenhouse under optimum growth conditions for about 3 weeks, the activity of the preparations was rated visually in comparison to untreated controls. For example, 100% activity=the plants have died, 0% activity=like untreated control plants. Tables B1-B8 below show the effects of selected compounds of the general formula (I) according to Table 1 above on various harmful plants and an application rate corresponding to 1280 g/ha, which were obtained by the experimental procedure mentioned above.

Setaria viridis = test: Herbicidal pre-emergence action (greenhouse pots), SETVI; details: 1280 g/ha, visual scoring after about 3 weeks vs untreated controls
Description: as §2

Amaranthus retroflexus [4] = test: Herbicidal pre-emergence action (greenhouse pots), AMARE; details: 1280 g/ha, visual scoring after about 3 weeks vs untreated controls
Description: as §2

Stellaria media = test: Herbicidal pre-emergence action (greenhouse pots), STEME; details: 1280 g/ha, visual scoring after about 3 weeks vs untreated controls
Description: as §2

Row | SMILES | AGSTE (herbicidal activity, scored visually in comparison to untreated controls) (Agrostis tenuis) [%] | POAAN (herbicidal activity, scored visually in comparison to untreated controls) (Poa annua [1]) [%] | herbicidal activity POAAN (Poa annua [2]) [%] | herbicidal activity AMARE (Amaranthus retroflexus [3]) [%] | herbicidal activity SETVI (Setaria viridis) [%] | herbicidal activity AMARE (Amaranthus retroflexus [4]) [%] | herbicidal activity STEME (Stellaria media) [%]
1 | CCSc1cccc(Nc2ncc(Cl)cn2)c1Oc1ccc(F)cc1 [Example 1-376] | 80 | 80 | – | – | – | – | –
2 | Cc1cccc(Nc2ccc(Cl)cn2)c1Oc1ccc(F)cc1 [Example 1-79] | 80 | 100 | 100 | – | – | – | –
3 | N#Cc1cccc(Nc2ncccn2)c1Oc1cc(F)cc(F)c1 [Example 1-254] | – | – | 90 | 100 | 100 | 100 | –
4 | N#Cc1cccc(Nc2ncc(Cl)cn2)c1Oc1cc(F)ccc1F [Example 1-290] | 80 | – | 90 | 100 | – | 90 | –
5 | N#Cc1cccc(Nc2ncc(F)cn2)c1Oc1cc(F)cc(F)c1 [Example 1-273] | 80 | – | – | 100 | 90 | 100 | –
6 | N#Cc1cccc(Nc2ncc(Cl)cn2)c1Oc1cc(F)cc(F)c1 [Example 1-292] | 100 | 80 | – | 100 | 90 | 100 | –
7 | Fc1ccc(Oc2c(Cl)cccc2Nc2ccc(Cl)cn2)cc1 [Example 1-75] | 100 | 80 | – | – | – | – | –
8 | Cc1ccc(Nc2cccc(C#N)c2Oc2ccc(F)cc2)nc1 [Example 1-149] | 100 | – | – | 100 | – | 100 | –
9 | N#Cc1cccc(Nc2ncc(Cl)cn2)c1Oc1cccc(C(F)(F)F)c1 [Example 1-297] | 100 | 80 | – | 100 | 100 | – | –
10 | N#Cc1cccc(Nc2ccc(Br)cn2)c1Oc1ccc(F)cc1 [Example 1-143] | 80 | – | – | – | – | – | –
11 | N#Cc1cccc(Nc2ncc(F)cn2)c1Oc1cc(F)ccc1F [Example 1-271] | 80 | 80 | 90 | 100 | 90 | 100 | –
12 | N#Cc1cccc(Nc2ncc(F)cn2)c1Oc1ccccc1F [Example 1-265] | 80 | – | 100 | 100 | 90 | 100 | 100
13 | CC(C)Oc1ccc(Nc2cccc(C#N)c2Oc2ccc(F)cc2)nc1 [Example 1-342] | – | – | – | 100 | 100 | 100 | –
14 | COc1cccc(Nc2ncc(Cl)cn2)c1Oc1ccc(F)cc1 [Example 1-324] | 100 | 80 | – | – | – | – | –
15 | N#Cc1ccc(Nc2cccc(C#N)c2Oc2ccc(F)c(F)c2)nc1 [Example 1-146] | 80 | – | – | – | – | – | –
16 | N#Cc1cccc(Nc2ccc(Cl)cn2)c1Oc1ccc(F)c(F)c1 [Example 1-129] | 100 | – | – | 100 | 90 | – | 90

Row | SMILES | AGSTE (herbicidal activity, scored visually in comparison to untreated controls) (Agrostis tenuis) [%] | POAAN (herbicidal activity, scored visually in comparison to untreated controls) (Poa annua [1]) [%] | herbicidal activity POAAN (Poa annua [2]) [%] | herbicidal activity AMARE (Amaranthus retroflexus [3]) [%] | herbicidal activity SETVI (Setaria viridis) [%] | herbicidal activity AMARE (Amaranthus retroflexus [4]) [%] | herbicidal activity STEME (Stellaria media) [%]
17 | COc1cccc(Oc2c(C#N)cccc2Nc2ncc(F)cn2)c1 [Example 1-281] | 100 | – | – | – | – | – | –
18 | N#Cc1cccc(Nc2ccc(Cl)cn2)c1Oc1ccc(F)cc1 [Example 1-124] | 100 | 100 | – | 100 | – | – | –
19 | N#Cc1cccc(Nc2ncc(Cl)cn2)c1Oc1ccccc1F [Example 1-284] | 100 | 100 | – | 100 | 100 | 100 | 90
20 | Fc1ccc(Oc2c(F)cccc2Nc2ccc(Cl)cn2)cc1 [Example 1-40] | 80 | 80 | – | – | – | – | –
21 | CNc1cccc(Nc2ncc(Cl)cn2)c1Oc1ccc(F)cc1 [Example 1-365] | 100 | – | – | – | – | – | –
22 | N#Cc1cccc(Nc2ncc(Cl)cn2)c1Oc1cccc(Cl)c1 [Example 1-287] | 80 | – | 100 | 100 | 100 | 100 | –
23 | N#Cc1ccc(Nc2cccc(C#N)c2Oc2ccc(F)cc2)nc1 [Example 1-145] | – | 80 | – | – | – | 90 | –
24 | Fc1ccc(Oc2c(Br)cccc2Nc2ncc(Cl)cn2)cc1 [Example 1-358] | 100 | 100 | – | – | – | – | –
25 | CSc1cccc(Nc2ncc(Cl)cn2)c1Oc1ccc(F)cc1 [Example 1-328] | 80 | 80 | – | – | – | – | –
26 | N#Cc1cccc(Nc2ncccn2)c1Oc1cc(F)ccc1F [Example 1-252] | – | – | – | – | – | 90 | –
27 | N#Cc1cccc(Nc2ccc(Br)cn2)c1Oc1ccc(F)c(F)c1 [Example 1-144] | 100 | 100 | – | – | – | – | –
28 | CN(C)c1cccc(Nc2ncc(Cl)cn2)c1Oc1ccc(F)cc1 [Example 1-366] | 100 | 80 | – | – | – | – | –
29 | Nc1c([N+](=O)[O-])cc(Nc2ncc(Cl)cn2)c(Oc2ccc(F)cc2)c1Cl [Example 2-101, 2-Chloro-4-(5-chloropyrimidin-2-ylamino)-3-(4-fluorophenoxy)-6-nitroaniline] | 100 | 80 | – | – | – | – | –
30 | Clc1ccc(Oc2c(Cl)cccc2Nc2ncc(Cl)cn2)cc1 [Example 1-341] | 100 | 100 | – | 100 | – | – | 90
31 | N#Cc1cccc(Nc2ncccn2)c1Oc1ccccc1F [Example 1-246, 2-(2-Fluorophenoxy)-3-(pyrimidin-2-ylamino)benzonitrile] | 80 | – | – | 100 | 100 | 100 | 100
